# Columns and labels:
# Test in all cases: combination Emax (second highest fraction inhibited in the dose matrix, 72 h); higher = more inhibition; extreme values may be limits of the assay
# [1] = test system: BICR78 (Oral Cavity Carcinoma)
# Procedure, shortened: (§1)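 Cell lines in DMEM/F12 or RPMI with 10% FBS were plated in 1536-well plates, held 24 hours at 37°C, 5% CO2, then given two-drug dose matrices for 72 hours (DMSO typically 0.2%). Viability was read by CellTiter-Glo 2.0 luminescence and scaled as inhibition from 0 (vehicle wells) to 1 (blank wells). Combination Emax is the second-highest inhibition in the matrix; Bliss excess is observed combination effect minus expected EA + EB − EA·EB, EA and EB being single-agent effects.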
# [2] = test system: GDM-1 (Acute Myeloid Leukemia)
# Procedure, shortened: as §1
# [3] = test system: RCC10RGB (Kidney Carcinoma)
# Procedure, shortened: as §1
# [4] = test system: HLE (Hepatocellular Carcinoma)
# Procedure, shortened: as §1
# Saos-2 (Osteosarcoma) = test system: Saos-2 (Osteosarcoma)
# Procedure, shortened: as §1
# [5] = test system: MEG-01 (Chronic Myelogenous Leukemia)
# Procedure, shortened: as §1
# [6] = test system: WSU-DLCL2 (B-Cell Non-Hodgkin's Lymphoma)
# Procedure, shortened: as §1
# D-392MG (Glioblastoma) = test system: D-392MG (Glioblastoma)
# Procedure, shortened: as §1
# [7] = test system: SKN-3 (Head and Neck Carcinoma)
# Procedure, shortened: as §1
# [8] = test system: EKVX (Non-Small Cell Lung Carcinoma)
# Procedure, shortened: as §1
# [9] = test system: NCI-H1688 (Small Cell Lung Carcinoma)
# Procedure, shortened: as §1
# [10] = test system: SNG-M (Endometrial Carcinoma)
# Procedure, shortened: as §1
# [11] = test system: SLVL (B-Cell Non-Hodgkin's Lymphoma)
# Procedure, shortened: as §1
# [12] = test system: HCT-116 (Colorectal Carcinoma)
# Procedure, shortened: as §1
# [13] = test system: HOP-92 (Non-Small Cell Lung Carcinoma)
# Procedure, shortened: as §1
# [14] = test system: D-283MED (Other Solid Carcinomas)
# Procedure, shortened: as §1
# [15] = test system: U-118-MG (Low Grade Glioma)
# Procedure, shortened: as §1
# [16] = test system: ETK-1 (Biliary Tract Carcinoma)
# Procedure, shortened: as §1
# CS1 (Chondrosarcoma) = test system: CS1 (Chondrosarcoma)
# Procedure, shortened: as §1
# H4 (Low Grade Glioma) = test system: H4 (Low Grade Glioma)
# Procedure, shortened: as §1
Structure (SMILES),combination Emax [1],combination Emax [2],combination Emax [3],combination Emax [4],combination Emax (Saos-2 (Osteosarcoma)),combination Emax [5],combination Emax [6],combination Emax (D-392MG (Glioblastoma)),combination Emax [7],combination Emax [8],combination Emax [9],combination Emax [10],combination Emax [11],combination Emax [12],combination Emax [13],combination Emax [14],combination Emax [15],combination Emax [16],combination Emax (CS1 (Chondrosarcoma)),combination Emax (H4 (Low Grade Glioma))
"CN(C)CCCOc1ccc(-c2ccc3ncc4c(c3c2)n(C2CCOCC2)c(=O)n4C)cn1 [AZD0156] + C=CCn1c(=O)c2cnc(Nc3ccc(N4CCN(C)CC4)cc3)nc2n1-c1cccc(C(C)(C)O)n1 [AZD1775] (first compound max 1 µM, partner max 1 µM)",0.311,0.823,0.464,0.747,0.494,0.883,0.944,0.18,0.139,0.179,0.646,0.58,0.904,0.494,0.631,0.996,0.316,0.515,0.509,0.791
"CN(C)CCCOc1ccc(-c2ccc3ncc4c(c3c2)n(C2CCOCC2)c(=O)n4C)cn1 [AZD0156] + CCN(CCO)CCCOc1ccc2c(Nc3cc(CC(=O)Nc4cccc(F)c4)[nH]n3)ncnc2c1 [AZD2811] (first compound max 1 µM, 7x7, partner max 1 µM)",0.182,0.81,0.143,0.414,0.369,0.329,0.359,0.0413,0.0518,0.0666,0.143,0.0754,0.605,0.287,0.383,0.769,0.194,0.21,0.301,0.513
"CN(C)CCCOc1ccc(-c2ccc3ncc4c(c3c2)n(C2CCOCC2)c(=O)n4C)cn1 [AZD0156] + C[C@@H]1COCCN1C2=NC(=NC(=C2)C3(CC3)[S@](=N)(=O)C)C4=C5C=CNC5=NC=C4 [AZD6738] (first compound max 1 µM, 7x7, partner max 10 µM)",0.696,0.52,0.403,0.778,0.394,0.912,0.977,0.374,0.414,0.234,0.382,0.964,0.84,0.665,0.665,1,0.528,0.632,0.674,0.826
"C=CCn1c(=O)c2cnc(Nc3ccc(N4CCN(C)CC4)cc3)nc2n1-c1cccc(C(C)(C)O)n1 [AZD1775] + C[C@@H]1COCCN1C2=NC(=NC(=C2)C3(CC3)[S@](=N)(=O)C)C4=C5C=CNC5=NC=C4 [AZD6738] (first compound max 1 µM, partner max 10 µM)",0.667,0.861,0.538,0.886,0.823,0.935,1,0.483,0.648,0.327,0.789,0.947,0.917,0.757,0.643,1,0.662,0.665,0.766,0.994
"CCN(CCO)CCCOc1ccc2c(Nc3cc(CC(=O)Nc4cccc(F)c4)[nH]n3)ncnc2c1 [AZD2811] + C=CCn1c(=O)c2cnc(Nc3ccc(N4CCN(C)CC4)cc3)nc2n1-c1cccc(C(C)(C)O)n1 [AZD1775] (first compound max 1 µM, partner max 1 µM)",0.264,0.857,0.518,0.935,0.704,0.863,0.937,0.168,0.148,0.17,0.568,0.482,0.889,0.547,0.646,1,0.333,0.479,0.45,0.782
"CCN(CCO)CCCOc1ccc2c(Nc3cc(CC(=O)Nc4cccc(F)c4)[nH]n3)ncnc2c1 [AZD2811] + C[C@@H]1COCCN1C2=NC(=NC(=C2)C3(CC3)[S@](=N)(=O)C)C4=C5C=CNC5=NC=C4 [AZD6738] (first compound max 1 µM, 7x7, partner max 10 µM)",0.637,0.823,0.384,0.76,0.588,0.912,0.822,0.392,0.222,0.261,0.271,0.932,0.784,0.562,0.626,1,0.52,0.562,0.632,0.808
"CCN(CCO)CCCOc1ccc2c(Nc3cc(CC(=O)Nc4cccc(F)c4)[nH]n3)ncnc2c1 [AZD2811] + O=C(c1cc(Cc2n[nH]c(=O)c3ccccc23)ccc1F)N1CCN(C(=O)C2CC2)CC1 [Olaparib] (first compound max 1 µM, 7x7, partner max 10 µM)",0.285,0.818,0.211,0.409,0.456,0.564,0.273,0.174,0.0796,0.159,0.196,0.25,0.723,0.452,0.363,0.817,0.377,0.216,0.386,0.558
"CN(CCO)CC[C@H](CSc1ccccc1)Nc1ccc(S(=O)(=O)NC(=O)c2ccc(N3CCC([C@@H](O)c4ccccc4-c4ccc(Cl)cc4)CC3)cc2)cc1S(=O)(=O)C(F)(F)F [AZD4320] + C1CN(CCC1(C(=O)N[C@@H](CCO)C2=CC=C(C=C2)Cl)N)C3=NC=NC4=C3C=CN4 [Capivasertib] (first compound max 1 µM, 7x7, partner max 3 µM)",0.244,0.991,0.237,0.274,0.399,0.901,1,0.189,0.062,0.269,0.575,0.528,0.622,0.146,0.891,0.763,0.497,0.175,0.491,0.404
"CN(CCO)CC[C@H](CSc1ccccc1)Nc1ccc(S(=O)(=O)NC(=O)c2ccc(N3CCC([C@@H](O)c4ccccc4-c4ccc(Cl)cc4)CC3)cc2)cc1S(=O)(=O)C(F)(F)F [AZD4320] + C=CCn1c(=O)c2cnc(Nc3ccc(N4CCN(C)CC4)cc3)nc2n1-c1cccc(C(C)(C)O)n1 [AZD1775] (first compound max 1 µM, partner max 1 µM)",0.304,1,0.552,0.871,0.707,0.994,1,0.763,0.368,0.244,0.87,0.903,0.966,0.572,0.974,0.985,0.376,0.618,0.647,1
"CN(CCO)CC[C@H](CSc1ccccc1)Nc1ccc(S(=O)(=O)NC(=O)c2ccc(N3CCC([C@@H](O)c4ccccc4-c4ccc(Cl)cc4)CC3)cc2)cc1S(=O)(=O)C(F)(F)F [AZD4320] + CCN(CCO)CCCOc1ccc2c(Nc3cc(CC(=O)Nc4cccc(F)c4)[nH]n3)ncnc2c1 [AZD2811] (first compound max 1 µM, 7x7, partner max 1 µM)",0.313,1,0.133,0.721,0.77,0.93,0.907,0.729,0.0584,0.155,0.723,0.775,0.94,0.748,0.968,0.973,0.487,0.26,0.683,0.543
"CN(CCO)CC[C@H](CSc1ccccc1)Nc1ccc(S(=O)(=O)NC(=O)c2ccc(N3CCC([C@@H](O)c4ccccc4-c4ccc(Cl)cc4)CC3)cc2)cc1S(=O)(=O)C(F)(F)F [AZD4320] + CN(C)CCCOc1ccc(-c2ccc3ncc4c(c3c2)n(C2CCOCC2)c(=O)n4C)cn1 [AZD0156] (first compound max 1 µM, 7x7, partner max 1 µM)",0.134,1,0.243,0.399,0.193,0.898,0.581,0.218,0.102,0.155,0.487,0.328,0.461,0.167,0.899,0.818,0.388,0.112,0.427,0.247
"CN(CCO)CC[C@H](CSc1ccccc1)Nc1ccc(S(=O)(=O)NC(=O)c2ccc(N3CCC([C@@H](O)c4ccccc4-c4ccc(Cl)cc4)CC3)cc2)cc1S(=O)(=O)C(F)(F)F [AZD4320] + C[C@@H]1COCCN1C2=NC(=NC(=C2)C3(CC3)[S@](=N)(=O)C)C4=C5C=CNC5=NC=C4 [AZD6738] (first compound max 1 µM, 7x7, partner max 10 µM)",0.774,1,0.492,0.871,0.673,0.983,0.989,0.792,0.546,0.252,0.728,0.973,0.94,0.778,0.976,0.992,0.878,0.675,0.83,0.9

# — the supplement of paper PMC11061612
